Assay results taken from patent US20060276464A1, “Diarylsulfone sulfonamides and use thereof” (Wyeth, priority 2005, published 2006).

How the values were obtained:
[1] = target: T1, SFRP-1 (Homo sapiens, UniProt Q8N474); test: Fluorescence polarization binding assay (competitive displacement of a probe compound from SFRP-1); settings: fluorescence anisotropy, 45 nM SFRP-1, 20 nM probe;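 note: test compound competes with a fluorescent probe held by SFRP-1, seen as a drop in probe anisotropy after incubation in darkness, with anisotropy as function of rising compound dose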
T1 sequence (Q8N474 32-314): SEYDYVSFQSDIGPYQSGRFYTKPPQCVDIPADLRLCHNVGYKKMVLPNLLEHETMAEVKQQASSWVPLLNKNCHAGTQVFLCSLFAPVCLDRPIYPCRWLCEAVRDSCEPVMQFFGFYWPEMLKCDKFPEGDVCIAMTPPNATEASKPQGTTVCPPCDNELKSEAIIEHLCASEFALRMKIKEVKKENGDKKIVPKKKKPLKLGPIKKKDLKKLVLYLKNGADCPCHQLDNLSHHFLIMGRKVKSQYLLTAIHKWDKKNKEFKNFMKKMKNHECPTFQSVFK

[2] = target: T1, SFRP-1; test: Cell-based assay for in vitro measurement of SFRP-1/SARP2 antagonist activity (U2OS cells co-transfected with 16x TCF-tk-Luciferase reporter, Wnt and hSFRP-1);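 note: U2OS cells co-transfected with a TCF-tk luciferase reporter, a Wnt vector, hSFRP-1 or empty vector and CMV-βgal, luciferase luminescence read in cell lysates alongside βgal activity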

IC50 [1] [nM]	EC50 [2] [nM]	Compound
20	85	O=C(O)COc1ccc2c(c1)CC(NS(=O)(=O)c1cc(S(=O)(=O)c3ccccc3)ccc1C(F)(F)F)C2 (stereo not drawn) [Example 1031, {[2-({[5-(phenylsulfonyl)-2-(trifluoromethyl)phenyl]sulfonyl}amino)-2,3-dihydro-1H-inden-5-yl]oxy}acetic acid]
500	1440	O=S(=O)(NCc1ccc(N2CCCC2)nc1)c1cc(S(=O)(=O)c2ccccc2)ccc1C(F)(F)F [Example 1032, 5-(phenylsulfonyl)-N-[(6-pyrrolidin-1-ylpyridin-3-yl)methyl]-2-(trifluoromethyl)benzenesulfonamide]
500	1520	O=S(=O)(NCc1ccc(N2CCOCC2)nc1)c1cc(S(=O)(=O)c2ccccc2)ccc1C(F)(F)F [Example 1033, N-[(6-morpholin-4-ylpyridin-3-yl)methyl]-5-(phenylsulfonyl)-2-(trifluoromethyl)benzenesulfonamide]
500	1670	O=S(=O)(NC1CCNCC1)c1cc(S(=O)(=O)c2cccc(Br)c2)ccc1C(F)(F)F [Example 1034, 5-[(3-bromophenyl)sulfonyl]-N-piperidin-4-yl-2-(trifluoromethyl)benzenesulfonamide]
800	7640	CN(CCNS(=O)(=O)c1cc(S(=O)(=O)c2ccccc2)ccc1C(F)(F)F)C(=O)c1ccc(CP(=O)(O)O)cc1 [Example 1036, [4-({methyl[2-({[5-(phenylsulfonyl)-2-(trifluoromethyl)phenyl]sulfonyl}amino)ethyl]amino}carbonyl)benzyl]phosphonic acid]
80	3810	COC(=O)c1ccc2c(c1)CC(NS(=O)(=O)c1cc(S(=O)(=O)c3ccccc3)ccc1C(F)(F)F)C2 (stereo not drawn) [Example 1037, methyl 2-({[5-(phenylsulfonyl)-2-(trifluoromethyl)phenyl]sulfonyl}amino)indane-5-carboxylate]
100	331	C[C@H](C(N)=O)N1CCC(NS(=O)(=O)c2cc(S(=O)(=O)c3ccccc3)ccc2C(F)(F)F)CC1 [Example 1038, (2R)-2-[4-({[5-(phenylsulfonyl)-2-(trifluoromethyl)phenyl]sulfonyl}amino)piperidin-1-yl]propanamide]
400	244	C[C@@H](C(N)=O)N1CCC(NS(=O)(=O)c2cc(S(=O)(=O)c3ccccc3)ccc2C(F)(F)F)CC1 [Example 1039, (2S)-2-[4-({[5-(phenylsulfonyl)-2-(trifluoromethyl)phenyl]sulfonyl}amino)piperidin-1-yl]propanamide]
140	217	O=C(c1ccc(=O)[nH]c1)N1CCC(NS(=O)(=O)c2cc(S(=O)(=O)c3ccccc3)ccc2C(F)(F)F)CC1 [Example 1040, N-{1-[(6-oxo-1,6-dihydropyridin-3-yl)carbonyl]piperidin-4-yl}-5-(phenylsulfonyl)-2-(trifluoromethyl)benzenesulfonamide]
500	1340	COc1ccc2c(c1)C(O)C(NS(=O)(=O)c1cc(S(=O)(=O)c3ccccc3)ccc1C(F)(F)F)C2 (stereo not drawn) [Example 1044, N-(1-hydroxy-6-methoxy-2,3-dihydro-1H-inden-2-yl)-5-(phenylsulfonyl)-2-(trifluoromethyl)benzenesulfonamide]
800	3440	CC(C)(C)OC(=O)N1CCC(NC(=O)NCCNS(=O)(=O)c2cc(S(=O)(=O)c3ccccc3)ccc2C(F)(F)F)CC1 [Example 1046, tert-butyl 4-[({[2-({[5-(phenylsulfonyl)-2-(trifluoromethyl)phenyl]sulfonyl}amino)ethyl]amino}carbonyl)amino]piperidine-1-carboxylate]
170	660	CSc1ccc(C(=O)N2CCC(NS(=O)(=O)c3cc(S(=O)(=O)c4ccccc4)ccc3C(F)(F)F)CC2)cc1 [Example 1050, N-{1-[4-(methylthio)benzoyl]piperidin-4-yl}-5-(phenylsulfonyl)-2-(trifluoromethyl)benzenesulfonamide]
90	155	C[S+]([O-])c1ccc(C(=O)N2CCC(NS(=O)(=O)c3cc(S(=O)(=O)c4ccccc4)ccc3C(F)(F)F)CC2)cc1 (stereo not drawn) [Example 1052, N-{1-[4-(Methylsulfinyl)benzoyl]piperidin-4-yl}-5-(phenylsulfonyl)-2-(trifluoromethyl)benzenesulfonamide]
40	190	CSCCC(=O)N1CCC(NS(=O)(=O)c2cc(S(=O)(=O)c3ccccc3)ccc2C(F)(F)F)CC1 [Example 1053, N-{1-[3-(methylthio)propanoyl]piperidin-4-yl}-5-(phenylsulfonyl)-2-(trifluoromethyl)benzenesulfonamide]
40	717	C[S+]([O-])CCC(=O)N1CCC(NS(=O)(=O)c2cc(S(=O)(=O)c3ccccc3)ccc2C(F)(F)F)CC1 (stereo not drawn) [Example 1054, N-{1-[3-(methylsulfinyl)propanoyl]piperidin-4-yl}-5-(phenylsulfonyl)-2-(trifluoromethyl)benzenesulfonamide]
50	96	CC(C)(C)OC(=O)N1CSC[C@H]1C(=O)N1CCC(NS(=O)(=O)c2cc(S(=O)(=O)c3ccccc3)ccc2C(F)(F)F)CC1 [Example 1055, tert-butyl (4R)-4-{[4-({[5-(phenylsulfonyl)-2-(trifluoromethyl)phenyl]sulfonyl}amino)piperidin-1-yl]carbonyl}-1,3-thiazolidine-3-carboxylate]
40	294	O=C([C@@H]1CSCN1)N1CCC(NS(=O)(=O)c2cc(S(=O)(=O)c3ccccc3)ccc2C(F)(F)F)CC1 [Example 1056, 5-(phenylsulfonyl)-N-{1-[(4R)-1,3-thiazolidin-4-ylcarbonyl]piperidin-4-yl}-2-(trifluoromethyl)benzenesulfonamide]
20	78	CC(C)(C)OC(=O)N1C[S+]([O-])C[C@H]1C(=O)N1CCC(NS(=O)(=O)c2cc(S(=O)(=O)c3ccccc3)ccc2C(F)(F)F)CC1 (stereo partly drawn) [Example 1061, tert-butyl (4R)-4-{[4-({[5-(phenylsulfonyl)-2-(trifluoromethyl)phenyl]sulfonyl}amino)piperidin-1-yl]carbonyl}-1,3-thiazolidine-3-carboxylate 1-oxide]
10	34	NC(=O)COc1ccc2c(c1)CC(NS(=O)(=O)c1cc(S(=O)(=O)c3ccccc3)ccc1C(F)(F)F)C2 (stereo not drawn) [Example 1062, 2-{[2-({[5-(phenylsulfonyl)-2-(trifluoromethyl)phenyl]sulfonyl}amino)-2,3-dihydro-1H-inden-5-yl]oxy}acetamide]
140	455	COC(=O)CN1CCC(NS(=O)(=O)c2cc(S(=O)(=O)c3ccccc3)ccc2C(F)(F)F)CC1 [Example 1063, methyl [4-({[5-(phenylsulfonyl)-2-(trifluoromethyl)phenyl]sulfonyl)amino)piperidin-1-yl]acetate]
60	193	CC(=O)N1CC[C@@H](C(=O)N2CCC(NS(=O)(=O)c3cc(S(=O)(=O)c4ccccc4)ccc3C(F)(F)F)CC2)C1 [Example 1064, N-(1-{[(3R)-1-acetylpyrrolidin-3-yl]carbonyl}piperidin-4-yl)-5-(phenylsulfonyl)-2-(trifluoromethyl)benzenesulfonamide]
50	167	CC(=O)N1CC[C@H](C(=O)N2CCC(NS(=O)(=O)c3cc(S(=O)(=O)c4ccccc4)ccc3C(F)(F)F)CC2)C1 [Example 1065, N-(1-{[(3S)-1-acetylpyrrolidin-3-yl]carbonyl}piperidin-4-yl)-5-(phenylsulfonyl)-2-(trifluoromethyl)benzenesulfonamide]
30	114	CS(=O)(=O)N1CCC[C@H]1C(=O)N1CCC(NS(=O)(=O)c2cc(S(=O)(=O)c3ccccc3)ccc2C(F)(F)F)CC1 [Example 1075, N-{1-[1-(methylsulfonyl)-L-prolyl]piperidin-4-yl}-5-(phenylsulfonyl)-2-(trifluoromethyl)benzenesulfonamide]
40	329	O=C([C@@H]1CCCN1C(=O)c1ccc(Cl)nc1)N1CCC(NS(=O)(=O)c2cc(S(=O)(=O)c3ccccc3)ccc2C(F)(F)F)CC1 [Example 1079, N-(1-{1-[(6-chloropyridin-3-yl)carbonyl]-L-prolyl}piperidin-4-yl)-5-(phenylsulfonyl)-2-(trifluoromethyl)benzenesulfonamide]
30	386	O=C(O)c1ccc(S(=O)(=O)N2CCC[C@H]2C(=O)N2CCC(NS(=O)(=O)c3cc(S(=O)(=O)c4ccccc4)ccc3C(F)(F)F)CC2)cc1 [Example 1080, 4-[((2S)-2-{[4-({[5-(phenylsulfonyl)-2-(trifluoromethyl)phenyl]sulfonyl}amino)piperidin-1-yl]carbonyl}pyrrolidin-1-yl)sulfonyl]benzoic acid]
16	289	O=C(O)c1ccc2c(c1)CC(NS(=O)(=O)c1cc(S(=O)(=O)c3ccccc3)ccc1C(F)(F)F)C2 (stereo not drawn) [Example 1082, 2-({[5-(phenylsulfonyl)-2-(trifluoromethyl)phenyl]sulfonyl}amino)indane-5-carboxylic acid]

Compound	IC50 [1] [nM]	EC50 [2] [nM]
CC(C)(C)OC(=O)N1CCC(NS(=O)(=O)c2cc(S(=O)(=O)c3ccc(C(=O)O)cc3)ccc2C(F)(F)F)CC1 [Example 1066, 4-{[3-({[1-(tert-butoxycarbonyl)piperidin-4-yl]amino}sulfonyl)-4-(trifluoromethyl)phenyl]sulfonyl}benzoic acid]	240	615
